From ChEMBL document CHEMBL6103615, “Thymidylate Kinase-Targeted Antimicrobial Peptides via Phage Display: A Novel Strategy against Gram-Negative Bacteria” (J Med Chem, 2025)
Values after ≈ are worked out from the molar mass of the structure shown. Active and inactive are the calls of the source. The rule behind the calls is not given here.

Assays:
[1] = Cytotoxicity against mouse RAW264.7 cells assessed as cell viability at 128 uM incubated for 4 hrs by MTT assay relative to control; assay type: toxicity, cell-based; details: read-out: Activity
[2] = Relative hydrophobic moment of compound; assay type: physicochemical
[3] = Cytotoxicity against porcine IPEC-J2 cells assessed as cell viability at 128 uM incubated for 4 hrs by MTT assay relative to control; assay type: toxicity, cell-based, Sus scrofa; details: pig, read-out: Activity
[4] = Hydrophobicity of compound; assay type: physicochemical
[5] = Hemolytic activity against human red blood cells at 2 to 128 uM relative to control; assay type: toxicity, cell-based, Erythrocyte; details: dose 2-128 µM, read-out: Activity
[6] = system: Lactiplantibacillus plantarum; test: Antibacterial activity against Lactobacillus plantarum 8014 incubated for 12 to 18 hrs by microbroth dilution method; assay type: functional; details: time 12-18 hrs
[7] = system: Lacticaseibacillus rhamnosus; test: Antibacterial activity against Lactobacillus rhamnosus 7469 incubated for 12 to 18 hrs by microbroth dilution method; assay type: functional; details: time 12-18 hrs
Lactococcus lactis = test: Antibacterial activity against Lactococcus lactis NZ9000 incubated for 12 to 18 hrs by microbroth dilution method; assay type: functional; details: time 12-18 hrs
[8] = Antibacterial activity against Salmonella choleraesuis 21493 incubated for 12 to 18 hrs by microbroth dilution method; assay type: functional, Salmonella enterica subsp. enterica serovar Choleraesuis; details: Salmonella enterica, time 12-18 hrs
Enterococcus faecalis = test: Antibacterial activity against Enterococcus faecalis 29212 incubated for 12 to 18 hrs by microbroth dilution method; assay type: functional; details: time 12-18 hrs
Escherichia coli [9] = test: Antibacterial activity against Escherichia coli 078 incubated for 12 to 18 hrs by microbroth dilution method; assay type: functional; details: time 12-18 hrs
Pseudomonas aeruginosa [10] = test: Antibacterial activity against Pseudomonas aeruginosa PAO1 incubated for 12 to 18 hrs by microbroth dilution method; assay type: functional; details: time 12-18 hrs
Pseudomonas aeruginosa [11] = test: Antibacterial activity against Pseudomonas aeruginosa 27853 incubated for 12 to 18 hrs by microbroth dilution method; assay type: functional; details: time 12-18 hrs
Staphylococcus aureus [12] = test: Antibacterial activity against Staphylococcus aureus 25923 incubated for 12 to 18 hrs by microbroth dilution method; assay type: functional; details: time 12-18 hrs
Staphylococcus aureus [13] = test: Antibacterial activity against Staphylococcus aureus 29213 incubated for 12 to 18 hrs by microbroth dilution method; assay type: functional; details: time 12-18 hrs
[14] = system: Staphylococcus epidermidis; test: Antibacterial activity against Staphylococcus epidermidis 12228 incubated for 12 to 18 hrs by microbroth dilution method; assay type: functional; details: time 12-18 hrs
Escherichia coli [15] = test: Antibacterial activity against Escherichia coli K99 incubated for 12 to 18 hrs by microbroth dilution method; assay type: functional; details: time 12-18 hrs
Salmonella typhimurium = test: Antibacterial activity against Salmonella typhimurium 7731 incubated for 12 to 18 hrs by microbroth dilution method; assay type: functional, Salmonella enterica subsp. enterica serovar Typhimurium; details: Salmonella enterica, time 12-18 hrs
Escherichia coli [16] = test: Antibacterial activity against Escherichia coli K88 incubated for 12 to 18 hrs by microbroth dilution method; assay type: functional; details: time 12-18 hrs
Escherichia coli [17] = test: Antibacterial activity against Escherichia coli 1515 incubated for 12 to 18 hrs by microbroth dilution method; assay type: functional; details: time 12-18 hrs
Staphylococcus aureus [18] = test: Antibacterial activity against methicillin-resistant Staphylococcus aureus 43300 incubated for 12 to 18 hrs by microbroth dilution method; assay type: functional; details: time 12-18 hrs
Escherichia coli [19] = test: Binding affinity to Escherichia coli K88 TraV at 128 uM by BLI assay
Escherichia coli [20] = test: Binding affinity to Escherichia coli K88 TMK at 128 uM by BLI assay
Bacteria [21] = test: Antibacterial activity against bacterial cells at 1 to 128 uM in presence of CaCl; assay type: functional, organism-based; details: dose 1-128 µM
Escherichia coli [22] = test: Disruption of membrane integrity in Escherichia coli K88 at 2 uM by PI staining based flow cytometry (reference value: 0.1 %); assay type: functional
Escherichia coli [23] = test: Induction of resistance development in Escherichia coli K88 at sub-MIC measured after 20 passages; assay type: functional, organism-based
Bacteria [24] = test: Antibacterial activity against bacterial cells at pH 12; assay type: functional
[25] = Binding affinity to 6xHis-tagged recombinant Escherichia coli TMK assessed as dissociation constant by BLI assay
Escherichia coli [26] = test: Induction of ROS generation in Escherichia coli K88 assessed as increase in fluorescence intensity incubated for 1 hr by DCFH-DA dye based analysis; assay type: functional, organism-based
Bacteria [27] = test: Antibacterial activity against bacterial cells at 100 degreeC at 1 to 64 uM incubated for 60 mins; assay type: functional, organism-based; details: dose 1-64 µM
Escherichia coli [28] = test: Induction of morphological changes in Escherichia coli K88 assessed as membrane permeability at edges at 2 uM incubated for 1 hr by TEM analysis; assay type: functional, organism-based
Escherichia coli [29] = test: Induction of morphological changes in Escherichia coli K88 assessed as membrane contraction at 2 uM incubated for 1 hr by SEM analysis; assay type: functional, organism-based
Escherichia coli [30] = test: Induction of morphological changes in Escherichia coli K88 assessed as cytoplasmic leakage at 2 uM incubated for 1 hr by TEM analysis; assay type: functional, organism-based
[31] = Effect on secondary structure of compound in PBS assessed as formation of alpha-helical conformation at 100 uM by CD analysis; assay type: physicochemical; details: buffer
Escherichia coli [32] = test: Inhibition of DNA migration in Escherichia coli K88 at 64 uM incubated for 40 mins by agarose gel electrophoresis.; assay type: functional, organism-based
Bacteria [33] = test: Antibacterial activity against bacterial cells at pH 4 to 10; assay type: functional
Bacteria [34] = test: Antibacterial activity against bacterial cells at pH 2 to 12; assay type: functional
Bacteria [35] = test: Antibacterial activity against bacterial cells at pH 2; assay type: functional
Bacteria [36] = test: Antibacterial activity against bacterial cells at 1 to 64 uM incubated for 4 hrs in presence of 50 percent serum; assay type: functional, organism-based; details: dose 1-64 µM
Escherichia coli [37] = test: Induction of morphological changes in Escherichia coli K88 assessed as membrane folding at 2 uM incubated for 1 hr by SEM analysis; assay type: functional, organism-based
Bacteria [38] = test: Antibacterial activity against bacterial cells at 1 to 128 uM in presence of NaCl; assay type: functional, organism-based; details: dose 1-128 µM

Row | Molecule | viability at 4 h, 128 µM [1] [%] | Activity [2] | viability at 4 h, 128 µM [3] [%] | Activity [4] | MIC [6] [µM] | MIC [7] [µM] | MIC (Lactococcus lactis) [µM] | MIC [8] [µM] | MIC (Enterococcus faecalis) [µM] | MIC (Escherichia coli [9]) [µM] | MIC (Pseudomonas aeruginosa [10]) [µM] | MIC (Pseudomonas aeruginosa [11]) [µM] | MIC (Staphylococcus aureus [12]) [µM] | MIC (Staphylococcus aureus [13]) [µM] | MIC [14] [µM] | MIC (Escherichia coli [15]) [µM] | MIC (Salmonella typhimurium) [µM] | MIC (Escherichia coli [16]) [µM] | MIC (Escherichia coli [17]) [µM] | MIC (Staphylococcus aureus [18]) [µM] | other results
1 | H-CFASAPRWKKIWKPGIKKWIK-OH [listing 1 of 2 here] | > 80 | 0.562 | > 80 | 0.502 |  |  |  |  |  |  |  |  |  |  |  |  |  |  |  |  | hemolysis at up to 128 µM [5]: < 5%
2 | CC[C@H](C)[C@H](NC(=O)CN)C(=O)NCC(=O)N[C@@H](C)C(=O)N[C@H](C(=O)N[C@@H](CC(C)C)C(=O)N[C@@H](CCCCN)C(=O)N[C@H](C(=O)N[C@@H](CC(C)C)C(=O)N[C@H](C(=O)N[C@H](C(=O)NCC(=O)N[C@@H](CC(C)C)C(=O)N1CCC[C@H]1C(=O)N[C@@H](C)C(=O)N[C@@H](CC(C)C)C(=O)N[C@H](C(=O)N[C@@H](CO)C(=O)N[C@@H](Cc1c[nH]c2ccccc12)C(=O)N[C@H](C(=O)N[C@@H](CCCCN)C(=O)N[C@@H](CCCNC(=N)N)C(=O)N[C@@H](CCCCN)C(=O)N[C@@H](CCCNC(=N)N)C(=O)N[C@@H](CCC(N)=O)C(=O)N[C@@H](CCC(N)=O)C(N)=O)[C@@H](C)CC)[C@@H](C)CC)[C@@H](C)O)[C@@H](C)O)C(C)C)C(C)C [MELITTIN] | > 80 |  | > 80 |  | 2 (≈ 5.69 µg/mL) | 2 (≈ 5.69 µg/mL) | 2 (≈ 5.69 µg/mL) | 4 (≈ 11.4 µg/mL) | 2 (≈ 5.69 µg/mL) |  |  |  |  |  |  |  |  |  |  |  | hemolysis at up to 128 µM [5]: < 5%
3 | H-RLTTMVHWKKIWKPGIKKWIK-OH | > 80 | 0.439 | > 80 | 0.51 | 128 | 128 | 128 | 16 | 128 | 8 | 4 | 8 | 128 | 128 | 128 | 8 | 8 | 4 | 8 | 128 | hemolysis at up to 128 µM [5]: < 5%
4 | CC[C@@H](C)[C@H](NC(=O)CNC(=O)[C@@H]1CCCN1C(=O)[C@H](CCCCN)NC(=O)[C@H](Cc1c[nH]c2ccccc12)NC(=O)[C@@H](NC(=O)[C@H](CCCCN)NC(=O)[C@H](CCCCN)NC(=O)[C@H](Cc1c[nH]c2ccccc12)NC(=O)[C@H](Cc1ccc(O)cc1)NC(=O)[C@H](CCCCN)NC(=O)[C@@H](NC(=O)[C@H](CC(C)C)NC(=O)[C@H](CC(N)=O)NC(=O)CNC(=O)[C@H](CO)NC(=O)CCCC[C@@H]1SC[C@@H]2NC(=O)N[C@@H]21)[C@@H](C)O)[C@@H](C)CC)C(=O)N[C@@H](CCCCN)C(=O)N[C@@H](CCCCN)C(=O)N[C@@H](Cc1c[nH]c2ccccc12)C(=O)N[C@H](C(=O)N[C@@H](CCCCN)C(=O)O)[C@H](C)CC |  |  |  |  |  |  |  |  |  |  |  |  |  |  |  |  |  |  |  |  | Activity (Escherichia coli [19]): Active; Activity (Escherichia coli [20]): Active
5 | H-EMPGYNSWKKIWKPGIKKWIK-OH | > 80 | 0.475 | > 80 | 0.408 | 128 | 128 | 128 | 64 | 128 | 128 | 32 | 64 | 128 | 128 | 128 | 32 | 64 | 32 | 64 | 128 | hemolysis at up to 128 µM [5]: < 5%
6 | H-WKKIWKPGIKKWIK-OH | > 80 | 0.727 | > 80 | 0.495 | 128 | 128 | 128 | 16 | 128 | 32 | 16 | 32 | 128 | 128 | 128 | 16 | 32 | 16 | 32 | 128 | Activity (Bacteria [21]): inactive; Activity (Escherichia coli [22]): 16.3%; Activity (Escherichia coli [23]): inactive; MIC (Bacteria [24]): 32 µM; Kd [25]: < 1 pM; Activity (Escherichia coli [26]): Dose-dependent-effect; Activity (Bacteria [27]): Active; Activity (Escherichia coli [28]): inactive; Activity (Escherichia coli [29]): inactive; Activity (Escherichia coli [30]): inactive; Activity [31]: Active; inhibition (Escherichia coli [32]): Active; MIC (Bacteria [33]): 16 µM; hemolysis at up to 128 µM [5]: < 5%; MIC (Bacteria [34]): 16 µM; MIC (Bacteria [35]): 32 µM; Activity (Bacteria [36]): Active; Activity (Escherichia coli [37]): inactive; Activity (Bacteria [38]): inactive
7 | H-FASSHPSWKKIWKPGIKKWIK-OH | > 80 | 0.55 | > 80 | 0.465 | 128 | 128 | 128 | 16 | 128 | 32 | 16 | 32 | 128 | 128 | 128 | 32 | 16 | 32 | 32 | 128 | 
8 | H-YTVSATYWKKIWKPGIKKWIK-OH | > 80 | 0.452 | > 80 | 0.517 | 128 | 128 | 128 | 16 | 128 | 8 | 8 | 32 | 128 | 128 | 128 | 8 | 8 | 8 | 8 | 128 | hemolysis at up to 128 µM [5]: < 5%
9 | H-CFASAPRWKKIWKPGIKKWIK-OH [listing 2 of 2 here] |  |  |  |  | 128 | 128 | 128 | 16 | 128 | 16 | 8 | 32 | 128 | 128 | 128 | 16 | 16 | 8 | 8 | 128 | 
10 | H-WTSNDTAWKKIWKPGIKKWIK-OH | > 80 | 0.532 | > 80 | 0.41 | 128 | 128 | 128 | 64 | 128 | 128 | 64 | 128 | 128 | 128 | 128 | 64 | 64 | 64 | 64 | 128 | hemolysis at up to 128 µM [5]: < 5%
11 | H-HSDANAWWKKIWKPGIKKWIK-OH | > 80 | 0.455 | > 80 | 0.406 | 128 | 128 | 128 | 16 | 128 | 8 | 16 | 32 | 128 | 128 | 128 | 16 | 32 | 32 | 16 | 128 | 
